Data as given in patent US12048309B2, “Materials and methods for preventing and dispersing exopolysaccharide-containing biofilms involving Listeria monocytogenes” (University of Wyoming, priority 2021, dated 2024).

System: EPS-biofilm formation by L. monocytogenes
Assay: Test of major ingredients of red maple (Acer rubrum) methanol extract for preventing EPS-biofilm formation
Format: cell-based, Listeria monocytogenes
Conditions: ingredients of methanol extract of dried red maple stems
Protocol: To identify active components responsible for preventing EPS-biofilm formation by L. monocytogenes, major ingredients from methanol extract of dried red maple stems, Acer rubrum, were tested. The tested compositions included catechin, epicatechin, procyanidin A2, epicatechin gallate, nortrachelogenin (also known as pinopalustrin), and nortrachelogenin 8′-O-β-D-glucopyranoside (also known as nortrachelogenin-8′-O-beta-glucoside).
Other major ingredients of the maple methanol extract, including catechin, epicatechin, procyanidin A2, and epicatechin gallate had no effect.

For `Oc1cc(O)c2c(c1)O[C@H](c1ccc(O)c(O)c1)[C@H](O)C2` [epicatechin], which antibiofilm activity is on record?
Its antibiofilm activity is “no effect”.

For `Oc1cc(O)c2c(c1)O[C@@]1(c3ccc(O)c(O)c3)Oc3cc(O)c4c(c3[C@@H]2[C@H]1O)O[C@H](c1ccc(O)c(O)c1)[C@H](O)C4` [procyanidin A2], which antibiofilm activity is on record?
The antibiofilm activity was “no effect”.

catechin was tested. Which antibiofilm activity did it give?
Its antibiofilm activity is “no effect”.

Which antibiofilm activity does the source give for `O=C(O[C@@H]1Cc2c(O)cc(O)cc2O[C@@H]1c1ccc(O)c(O)c1)c1cc(O)c(O)c(O)c1` [epicatechin gallate] here?
The antibiofilm activity was “no effect”.

`COc1cc(CC2COC(=O)C2(O)Cc2ccc(O)c(OC)c2)ccc1O` (centres unmarked) [nortrachelogenin] was tested. Which antibiofilm activity did it give?
Its antibiofilm activity is “no significant antibiofilm activity”.
